Source: patent publication US20230406821A1, “STRIGOLACTONE DERIVATIVES” (Plant Response, Inc., priority 2017, published 2023)

Key:
[1] = system: Zea mays Dekalb Hybrid DKC68-26RIB; test: Stomatal conductance (LI-6400XT) of sprayed maize plants; type: in vivo; conditions: EC formulation plus 1% Crop Oil Concentrate, foliar spray 2 grams/acre, measured next morning (FIG. 7)
Description: FIG. 7 is a boxplot representing the distribution of stomatal conductance (mmol/m^2/s) measurements taken via LI-6400XT on Zea mays plants treated with EC formulation blank and Crop Oil Concentrate (control; EC) or strigolactone molecule MBS-127, EC formulation blank and Crop Oil Concentrate (MBS-127+EC). […] Letters define significant classes with P<0.05. Points show observations falling outside of the whiskers and have been jittered along the x-axis to avoid overlap.
Water transport is closely intertwined with many vital plant processes, including photosynthesis, translocation, mineral nutrition, growth, and plays a critical role in defining the yield potential of a crop field (Azizian, A., & Sepaskhah, A. R. “Maize response to water, salinity and nitrogen levels: yield-water relation, water-use efficiency and water uptake reduction function,” International Journal of Plant Production (2014) Vol. 8(2), pp. 183-214). The compounds of formulas described herein induce increased leaf conductance in the leaves of intact Z. mays plants (FIG. 7).
In this experiment maize (Zea mays Dekalb Hybrid DKC68-26RIB) plants were grown in a greenhouse in one-gallon pots filled with Sunshine #2 soil-less growing mix. […] Leaves were acclimated within the LI6400XTR sensor head until gas exchange measurements had stabilized for conductance and then the conductance for that leaf determined.

Z. mays = test: Root hair elongation in maize under insufficient phosphate; type: in vivo, Zea mays; conditions: various nutrient levels, shown under insufficient phosphate conditions, vs DMSO (FIG. 4)
Description: FIG. 4 is a boxplot graph representing the distribution of maximum root hair length in the root apical zone of Z. mays with the control solvent DMSO, strigolactone molecule MBS-127 in DMSO, and strigolactone molecule MBS-128 in DMSO. Stars indicate significant differences relative to the DMSO control (*: adjustedp-value <0.1; p-values were adjusted for multiple-hypothesis testing using a Bonferroni correction). Representative images show root hairs in the root apical zone of plants treated with the control solvent DMSO, strigolactone molecule MBS-127 in DMSO, and strigolactone molecule MBS-128 in DMSO. Scale bars equal 10 mm.

[2] = system: A. thaliana Columbia (Col-0); test: Root hair elongation on phosphate limiting media; type: in vivo, Arabidopsis thaliana; conditions: in DMSO (0.1%), images after seven days, vs DMSO (FIG. 3)
Description: FIG. 3 is a boxplot representing the maximum root hair length in the root apical zone of A. thaliana treated with the control solvent DMSO, strigolactone molecule MBS-127 in DMSO, and strigolactone molecule MBS-128 in DMSO. Stars indicate significant differences relative to the DMSO control (*: adjusted p-value <0.01; p-values adjusted for multiple-hypothesis testing); non-parametric Mann-Whitney U-tests were used to assess significance. Representative images show root hairs in the root apical zone of plants treated with the control solvent DMSO, the strigolactone molecule MBS-127 in DMSO, and the strigolactone molecule MBS-128 in DMSO. Scale bars equal 1 mm. […]
In this experiment sterilized seeds of the A. thaliana Columbia (Col-0) ecotype were planted on growth media (Murashige and Skoog (MS) M404 with vitamins (2.2 g/L), 0.5% sucrose, 0.05% IVIES hydrate, 0.6% PhytoBlend™) and grown for nine days. […] The longest root hair, within the root apical zone, was measured from the images using ImageJ. […]

| SMILES | increase in stomatal conductance compared to the control group [1] [%] | root hair elongation (maximum root hair length in the root apical zone) (Z. mays) | root hair elongation and proliferation (maximum root hair length in the root apical zone) [2] |
| --- | --- | --- | --- |
| COC(=O)/C=C/OC1C=C(C)C(=O)O1 (centres unmarked) [MBS-127, 3-(4-Methyl-5-oxo-2,5-dihydro-furan-2-yloxy)-acrylic acid methyl ester] | 60 | induce root hair elongation | enhance root hair elongation and proliferation |
| COC(=O)/C=C/OC1(C)C=C(C)C(=O)O1 (centres unmarked) [MBS-128, methyl (E)-3-((2,4-dimethyl-5-oxo-2,5-dihydrofuran-2-yl)oxy)acrylate] | – | induce root hair elongation | enhance root hair elongation and proliferation |
